Patent US8506950B2, “Degradable microcapsules” (ETH Zurich, priority 2008, dated 2013)

Target: rLHR (Rattus norvegicus, UniProt P16235)
Assay: Cellulase activity assay of supernatants of CK04 cells transfected with pCK71
Type: cell-based
Design: Full-length cDNAs encoding the LHRs of rat (r) and bovine (b) origin; expressed in transfected cells; host or cells: CK04: HEK293T stably cotransfected with pLEN-rLHR and pZeoSV2(+), clone 6
Details: CK04 + pCK71, supernatants 48 h post-induction
Protocol: Cellulase activity assay performed from cell culture supernatants 48 h post-induction.
A novel bLH-responsive microcapsule degradation system was established by placing an engineered secreted version of the lytic enzyme endo-1.4-beta-glucanase gene (cellulase) under control of PCRE. […] The protein had the estimated size of 57 kDa. Additionally, the functionality of the pCK71-encoded cellulase was evaluated by performing a cellulase activity assay (FIG. 12).
Cellulase was quantified using EnzCheck® fluorescent substrate (Molecular Probes, Eugene, Oreg., USA) according to the manufacturer's protocol: 20 μl of cell culture supernatant was centrifuged at 16,000×g for one minute to remove cell debris and 15 μl of appropriate dilutions in PBS (Invitrogen, cat. no. 21600-069) were transferred to a 384-well plate containing 15 μl sodium acetate buffer (200 mM sodium acetate, pH 5.5) per well supplemented with 3 μl substrate solution. Plates were incubated at 37° C. for 30 minutes and fluorescence intensity was measured subsequently at 340 nm (excitation wavelength) and 450 nm (emission wavelength) in a Genios Pro multiwell plate reader (Tecan A G, Maennedorf, Switzerland). Absolute cellulase levels were determined by comparing the fluorescence intensities to readings of standardized solutions containing known concentrations of Aspergillus niger cellulase (Sigma, cat. no. 22178). […]

Chain of rLHR (P16235 27-700): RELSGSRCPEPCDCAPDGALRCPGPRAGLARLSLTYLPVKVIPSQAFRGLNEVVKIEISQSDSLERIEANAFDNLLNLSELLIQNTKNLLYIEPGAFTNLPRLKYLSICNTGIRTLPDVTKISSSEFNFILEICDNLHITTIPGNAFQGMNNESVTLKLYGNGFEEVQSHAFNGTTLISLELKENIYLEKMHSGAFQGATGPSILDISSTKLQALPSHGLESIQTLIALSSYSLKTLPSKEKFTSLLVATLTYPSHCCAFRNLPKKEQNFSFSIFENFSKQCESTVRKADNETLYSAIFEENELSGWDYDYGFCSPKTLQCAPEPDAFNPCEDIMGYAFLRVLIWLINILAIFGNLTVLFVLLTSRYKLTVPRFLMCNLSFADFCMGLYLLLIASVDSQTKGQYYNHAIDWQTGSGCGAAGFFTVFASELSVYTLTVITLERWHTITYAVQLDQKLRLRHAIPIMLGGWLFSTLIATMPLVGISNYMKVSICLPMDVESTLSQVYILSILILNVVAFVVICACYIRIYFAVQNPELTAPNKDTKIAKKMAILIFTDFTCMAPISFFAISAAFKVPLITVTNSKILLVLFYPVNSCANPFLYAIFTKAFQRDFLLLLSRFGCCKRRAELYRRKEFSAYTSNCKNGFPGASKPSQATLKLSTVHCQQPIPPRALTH

bLH-dependent increase in cellulase activity: 8.4±0.2 fold
Substance: bovine luteinizing hormone [bLH]
